Assay: relative permittivity at various frequencies (dimensionless)
Details: 96.5 kPa, Liquid, Frequency=1 MHz, Parallel plate capacitor

O [water]
Details | relative permittivity
298.15 K | 79.68
308.15 K | 75.51
318.15 K | 71.42
328.15 K | 68.44
338.15 K | 64.51
348.15 K | 60.78
